# Test results: patent US20240025884A1 (Dong-A ST Co., Ltd., priority 2022, published 2024)
# Biological target: GCN2 (Homo sapiens (Human), UniProt Q9P2K8)
# Experiment: GCN2 Biochemical Assay (TR-FRET, GFP-eIF2S1 substrate phosphorylation)
# Conditions: read-out: IC50 (GCN2 Inhibitory Activity)
# Outline: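 TR-FRET readout (Ex 340, Em 490/520 nm) after 2–3 h with Tb-labelled phospho-eIF2S1 antibody in stop mix, following a 70 min room-temperature kinase step. Reaction: in-house GCN2, GFP-eIF2S1, ATP, tRNA in Tris pH 7.5 (2× stocks 1.6 nM, 50 nM, 0.2 mM); compounds tested at 10 concentrations, with a phospho-substrate artifact counter-plate.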
# GCN2, sequence (Q9P2K8 whole entry): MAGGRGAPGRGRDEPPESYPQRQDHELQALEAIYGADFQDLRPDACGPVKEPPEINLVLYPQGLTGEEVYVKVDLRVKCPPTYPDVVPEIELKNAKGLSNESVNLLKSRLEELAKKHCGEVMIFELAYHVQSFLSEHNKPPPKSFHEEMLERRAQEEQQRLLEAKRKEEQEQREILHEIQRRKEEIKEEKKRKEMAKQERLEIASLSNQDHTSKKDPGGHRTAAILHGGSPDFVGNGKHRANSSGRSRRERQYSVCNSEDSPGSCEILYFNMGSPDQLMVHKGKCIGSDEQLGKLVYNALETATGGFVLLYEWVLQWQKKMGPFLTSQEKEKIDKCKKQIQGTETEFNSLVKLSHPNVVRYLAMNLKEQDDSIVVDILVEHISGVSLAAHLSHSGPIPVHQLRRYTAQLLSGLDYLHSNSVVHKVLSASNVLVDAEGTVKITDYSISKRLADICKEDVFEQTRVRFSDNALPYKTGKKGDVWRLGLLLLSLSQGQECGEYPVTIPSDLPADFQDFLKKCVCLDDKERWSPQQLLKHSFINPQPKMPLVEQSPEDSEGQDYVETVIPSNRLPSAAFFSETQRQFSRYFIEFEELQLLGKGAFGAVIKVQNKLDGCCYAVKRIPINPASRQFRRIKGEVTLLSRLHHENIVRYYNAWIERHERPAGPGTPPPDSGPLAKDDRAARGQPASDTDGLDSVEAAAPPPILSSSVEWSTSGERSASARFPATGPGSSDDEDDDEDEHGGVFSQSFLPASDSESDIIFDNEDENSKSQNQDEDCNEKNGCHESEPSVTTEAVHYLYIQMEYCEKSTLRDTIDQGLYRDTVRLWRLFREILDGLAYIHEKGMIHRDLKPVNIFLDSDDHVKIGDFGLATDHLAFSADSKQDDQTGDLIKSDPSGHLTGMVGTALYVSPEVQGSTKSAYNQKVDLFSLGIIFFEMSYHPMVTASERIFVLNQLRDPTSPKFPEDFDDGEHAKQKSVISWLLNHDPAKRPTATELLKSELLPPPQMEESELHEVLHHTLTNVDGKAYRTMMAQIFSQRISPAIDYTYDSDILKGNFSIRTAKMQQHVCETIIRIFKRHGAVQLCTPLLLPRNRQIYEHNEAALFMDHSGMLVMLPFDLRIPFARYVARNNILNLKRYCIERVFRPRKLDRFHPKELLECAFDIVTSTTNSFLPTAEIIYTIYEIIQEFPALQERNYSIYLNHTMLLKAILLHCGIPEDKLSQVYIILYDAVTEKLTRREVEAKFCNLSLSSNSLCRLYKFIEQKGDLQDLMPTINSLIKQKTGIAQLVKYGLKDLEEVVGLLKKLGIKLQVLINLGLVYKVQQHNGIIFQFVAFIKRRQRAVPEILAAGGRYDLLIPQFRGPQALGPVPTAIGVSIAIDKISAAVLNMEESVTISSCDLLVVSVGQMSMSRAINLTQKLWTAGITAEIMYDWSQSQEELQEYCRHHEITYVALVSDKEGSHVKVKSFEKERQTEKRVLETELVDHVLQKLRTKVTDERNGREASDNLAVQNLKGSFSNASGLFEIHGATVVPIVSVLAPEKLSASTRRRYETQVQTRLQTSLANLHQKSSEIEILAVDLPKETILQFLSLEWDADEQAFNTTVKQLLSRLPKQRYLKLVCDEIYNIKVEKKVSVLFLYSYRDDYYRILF
row,SMILES,IC50 [nM]
1,"Cc1cnc(Nc2cc(C)n(C)n2)nc1-c1c[nH]c2c(N3Cc4c(ccnc4-c4cncc(F)c4)C3=O)cccc12 [Example 503, 2-(3-(2-((1,5-dimethyl-1H-pyrazol-3-yl)amino)-5-methylpyrimidin-4-yl)-1H-indol-7-yl)-4-(5-fluoropyridin-3-yl)-2,3-dihydro-1H-pyrrolo[3,4-c]pyridin-1-one]",< 10
2,"Cc1cncc(-c2nccc3c2CN(c2cccc4c(-c5nc(Nc6cc(C)n(C)n6)ncc5C)c[nH]c24)C3=O)c1 [Example 505, 2-(3-(2-((1,5-dimethyl-1H-pyrazol-3-yl)amino)-5-methylpyrimidin-4-yl)-1H-indol-7-yl)-4-(5-methylpyridin-3-yl)-2,3-dihydro-1H-pyrrolo[3,4-c]pyridin-1-one]",< 10
3,"Cc1cnccc1-c1nccc2c1CN(c1cccc3c(-c4nc(Nc5cc(C)n(C)n5)ncc4C)c[nH]c13)C2=O [Example 506, 2-(3-(2-((1,5-dimethyl-1H-pyrazol-3-yl)amino)-5-methylpyrimidin-4-yl)-1H-indol-7-yl)-4-(3-methylpyridin-4-yl)-2,3-dihydro-1H-pyrrolo[3,4-c]pyridin-1-one]",< 10

# The remaining lines, values ahead:
row,IC50 [nM],SMILES
1,< 10,"Cc1cc(-c2nccc3c2CN(c2cccc4c(-c5nc(Nc6cc(C)n(C)n6)ncc5C)c[nH]c24)C3=O)ccn1 [Example 502, 2-(3-(2-((1,5-dimethyl-1H-pyrazol-3-yl)amino)-5-methylpyrimidin-4-yl)-1H-indol-7-yl)-4-(2-methylpyridin-4-yl)-2,3-dihydro-1H-pyrrolo[3,4-c]pyridin-1-one]"
2,< 10,"Cc1cnc(Nc2cc(C)n(C)n2)nc1-c1c[nH]c2c(N3Cc4c(ccnc4-c4ccnc(F)c4)C3=O)cccc12 [Example 504, 2-(3-(2-((1,5-dimethyl-1H-pyrazol-3-yl)amino)-5-methylpyrimidin-4-yl)-1H-indol-7-yl)-4-(2-fluoropyridin-4-yl)-2,3-dihydro-1H-pyrrolo[3,4-c]pyridin-1-one]"
